According to patent US12691101B2, “Compound and method for preventing or treating of respiratory diseases comprising the same as an active ingredient” (YONSEI UNIVERSITY, UNIVERSITY - INDUSTRY FOUNDATION (UIF), priority 2019, dated 2026):

What was measured:
SLC26A3 = molecular target: T1, SLC26A3 (Homo sapiens, UniProt P40879); test: Cl^−/HCO3^− exchange in CHO-K1 cells expressing SLC26A3; format: cell-based; settings: weakly inhibited
T1 construct: expressed in transfected cells; host or cells: CHO-K1
T1 sequence (P40879 whole entry, species assumed): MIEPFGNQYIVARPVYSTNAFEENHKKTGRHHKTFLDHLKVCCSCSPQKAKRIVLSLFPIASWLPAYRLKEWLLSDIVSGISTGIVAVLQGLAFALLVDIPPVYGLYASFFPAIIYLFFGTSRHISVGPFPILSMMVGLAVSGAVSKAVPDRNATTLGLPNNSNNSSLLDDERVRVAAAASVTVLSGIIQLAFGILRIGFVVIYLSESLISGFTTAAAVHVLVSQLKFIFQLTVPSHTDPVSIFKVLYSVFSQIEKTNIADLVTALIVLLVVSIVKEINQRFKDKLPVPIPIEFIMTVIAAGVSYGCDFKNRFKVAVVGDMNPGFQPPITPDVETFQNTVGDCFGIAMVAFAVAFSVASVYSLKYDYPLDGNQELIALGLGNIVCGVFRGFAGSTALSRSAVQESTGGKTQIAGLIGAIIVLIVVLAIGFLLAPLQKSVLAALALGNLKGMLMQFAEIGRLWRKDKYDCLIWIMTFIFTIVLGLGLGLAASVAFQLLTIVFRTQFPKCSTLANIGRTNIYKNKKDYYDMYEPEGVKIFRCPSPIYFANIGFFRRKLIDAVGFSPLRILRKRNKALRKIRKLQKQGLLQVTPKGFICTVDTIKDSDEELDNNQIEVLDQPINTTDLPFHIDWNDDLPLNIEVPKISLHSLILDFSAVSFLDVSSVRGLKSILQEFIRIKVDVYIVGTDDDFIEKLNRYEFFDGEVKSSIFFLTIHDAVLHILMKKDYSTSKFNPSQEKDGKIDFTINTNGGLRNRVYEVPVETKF
Description: (§1) (A) The inhibition of mouse pendrin (mPDS)-mediated Cl^−/I^− exchange activity by F56 was measured in CHO-K1 cells (mean±S.E., n=5). The indicated concentration of F56 was pretreated for 10 minutes. (B) Summary of dose-response for inhibition of the human pendrin (hPDS)-mediated (closed circle, FIG. (a), C) and mPDS-mediated (open circle) Cl^−/I^− exchange activity. (C-F) Representative traces of intracellular pH in CHO-K1 cells expressing SLC26A3, SLC26A6, SLC26A7 and SLC26A9 were shown. The application of Cl^− free solution induced intracellular alkalization by Cl^−/HCO3^− exchange. The indicated concentration of F56 was pretreated for 10 minutes. (G) the effect of F56 (100 μM) on the CFTR chloride channel activity was measured in FRT cells expressing human CFTR. The CFTR current was activated by 20 μM forskolin and was inhibited by 10 μM CFTRinh-172. (H) The effect of F56 (100 μM) on the AN01 chloride channel activity was measured in FRT cells expressing human AN01. Before 10 minutes prior to AN01 activation by 100 μM ATP, F56 was added. (Right) Peak current summary (mean±S.E., n=3). (I) The effect of F56 on the hERG (Kv11.1) potassium channel activity was measured in HEK293T cells expressing human Kv11.1 (mean±S.E., n=4). […] (J) The effect of F56 on the 5-HT2A channel activity was measured in FRT cells expressing human 5-HT2A (mean±S.E., n=4). […]

SLC26A6 = molecular target: T2, SLC26A6 (Homo sapiens, UniProt Q9BXS9); test: Cl^−/HCO3^− exchange in CHO-K1 cells expressing SLC26A6; format: cell-based; settings: weakly inhibited
T2 construct: expressed in transfected cells; host or cells: CHO-K1
T2 sequence (Q9BXS9 whole entry, species assumed): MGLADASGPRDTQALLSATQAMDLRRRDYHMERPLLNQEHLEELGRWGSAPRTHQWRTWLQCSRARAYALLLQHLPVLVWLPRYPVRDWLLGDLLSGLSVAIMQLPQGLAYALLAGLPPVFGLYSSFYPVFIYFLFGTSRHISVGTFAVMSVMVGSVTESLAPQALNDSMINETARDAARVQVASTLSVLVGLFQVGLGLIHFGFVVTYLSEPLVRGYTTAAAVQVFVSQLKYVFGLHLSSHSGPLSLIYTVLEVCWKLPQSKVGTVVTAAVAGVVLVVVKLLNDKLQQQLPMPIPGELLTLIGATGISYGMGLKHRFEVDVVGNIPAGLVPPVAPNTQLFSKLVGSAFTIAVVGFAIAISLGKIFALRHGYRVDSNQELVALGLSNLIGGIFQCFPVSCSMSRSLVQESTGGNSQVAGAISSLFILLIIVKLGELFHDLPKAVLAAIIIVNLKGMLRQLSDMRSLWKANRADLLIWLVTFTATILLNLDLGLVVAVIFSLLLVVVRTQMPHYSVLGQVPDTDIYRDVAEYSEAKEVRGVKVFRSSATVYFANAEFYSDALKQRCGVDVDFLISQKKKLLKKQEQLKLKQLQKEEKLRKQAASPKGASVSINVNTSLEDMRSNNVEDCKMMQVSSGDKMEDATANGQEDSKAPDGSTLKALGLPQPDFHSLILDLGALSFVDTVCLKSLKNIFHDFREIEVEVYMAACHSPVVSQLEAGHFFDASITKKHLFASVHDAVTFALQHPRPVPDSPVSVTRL
Description: as §1

SLC26A7 = molecular target: T3, SLC26A7 (Homo sapiens, UniProt Q8TE54); test: Cl^−/HCO3^− exchange in CHO-K1 cells expressing SLC26A7; format: cell-based
T3 construct: expressed in transfected cells; host or cells: CHO-K1
T3 sequence (Q8TE54 whole entry, species assumed): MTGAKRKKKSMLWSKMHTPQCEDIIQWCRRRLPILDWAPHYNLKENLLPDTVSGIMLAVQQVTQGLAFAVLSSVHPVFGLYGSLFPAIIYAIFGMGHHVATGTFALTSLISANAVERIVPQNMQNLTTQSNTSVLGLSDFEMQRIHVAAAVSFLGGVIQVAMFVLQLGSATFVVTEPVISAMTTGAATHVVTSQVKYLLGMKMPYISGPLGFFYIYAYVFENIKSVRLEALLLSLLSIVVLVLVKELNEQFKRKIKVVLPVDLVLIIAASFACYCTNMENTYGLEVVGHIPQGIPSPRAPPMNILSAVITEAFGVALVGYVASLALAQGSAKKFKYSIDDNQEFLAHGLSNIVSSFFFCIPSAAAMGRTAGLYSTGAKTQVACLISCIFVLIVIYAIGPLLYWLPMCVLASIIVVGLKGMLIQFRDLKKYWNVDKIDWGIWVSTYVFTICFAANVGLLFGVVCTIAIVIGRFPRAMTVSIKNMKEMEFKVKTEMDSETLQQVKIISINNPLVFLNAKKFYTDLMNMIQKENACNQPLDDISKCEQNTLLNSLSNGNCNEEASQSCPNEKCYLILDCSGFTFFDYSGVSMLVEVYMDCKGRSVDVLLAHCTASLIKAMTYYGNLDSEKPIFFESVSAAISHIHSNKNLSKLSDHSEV
Description: as §1

SLC26A9 = molecular target: T4, SLC26A9 (Homo sapiens, UniProt Q7LBE3); test: Cl^−/HCO3^− exchange in CHO-K1 cells expressing SLC26A9; format: cell-based
T4 construct: expressed in transfected cells; host or cells: CHO-K1
T4 sequence (Q7LBE3 whole entry, species assumed): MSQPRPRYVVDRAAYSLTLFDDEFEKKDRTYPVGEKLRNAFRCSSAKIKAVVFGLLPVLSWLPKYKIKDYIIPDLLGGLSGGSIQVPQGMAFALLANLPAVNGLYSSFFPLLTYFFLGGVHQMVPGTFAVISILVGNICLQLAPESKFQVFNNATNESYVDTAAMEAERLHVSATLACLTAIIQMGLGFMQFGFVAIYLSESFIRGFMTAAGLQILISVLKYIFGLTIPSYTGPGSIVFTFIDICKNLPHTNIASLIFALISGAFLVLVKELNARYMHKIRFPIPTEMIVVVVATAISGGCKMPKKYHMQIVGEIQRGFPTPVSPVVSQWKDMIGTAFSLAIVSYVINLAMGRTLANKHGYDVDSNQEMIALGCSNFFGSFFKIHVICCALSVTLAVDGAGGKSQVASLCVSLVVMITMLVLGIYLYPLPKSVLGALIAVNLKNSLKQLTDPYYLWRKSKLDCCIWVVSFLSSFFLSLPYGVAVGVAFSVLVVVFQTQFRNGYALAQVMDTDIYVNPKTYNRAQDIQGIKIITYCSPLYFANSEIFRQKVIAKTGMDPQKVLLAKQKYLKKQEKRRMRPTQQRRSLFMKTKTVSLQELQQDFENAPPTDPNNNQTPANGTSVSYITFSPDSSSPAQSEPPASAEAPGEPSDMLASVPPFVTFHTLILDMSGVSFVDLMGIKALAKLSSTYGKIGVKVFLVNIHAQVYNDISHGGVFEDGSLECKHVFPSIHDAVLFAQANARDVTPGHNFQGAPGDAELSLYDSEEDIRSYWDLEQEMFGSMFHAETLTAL
Description: as §1

pendrin = molecular target: T5, pendrin (Homo sapiens, UniProt O43511); test: Pendrin-mediated Cl^−/HCO3^− exchange in IL-4-treated HNE and HBE cells; format: cell-based
T5 construct: endogenous in cells; host or cells: primary HNE and HBE cells, IL-4 treated
T5 sequence (O43511 whole entry): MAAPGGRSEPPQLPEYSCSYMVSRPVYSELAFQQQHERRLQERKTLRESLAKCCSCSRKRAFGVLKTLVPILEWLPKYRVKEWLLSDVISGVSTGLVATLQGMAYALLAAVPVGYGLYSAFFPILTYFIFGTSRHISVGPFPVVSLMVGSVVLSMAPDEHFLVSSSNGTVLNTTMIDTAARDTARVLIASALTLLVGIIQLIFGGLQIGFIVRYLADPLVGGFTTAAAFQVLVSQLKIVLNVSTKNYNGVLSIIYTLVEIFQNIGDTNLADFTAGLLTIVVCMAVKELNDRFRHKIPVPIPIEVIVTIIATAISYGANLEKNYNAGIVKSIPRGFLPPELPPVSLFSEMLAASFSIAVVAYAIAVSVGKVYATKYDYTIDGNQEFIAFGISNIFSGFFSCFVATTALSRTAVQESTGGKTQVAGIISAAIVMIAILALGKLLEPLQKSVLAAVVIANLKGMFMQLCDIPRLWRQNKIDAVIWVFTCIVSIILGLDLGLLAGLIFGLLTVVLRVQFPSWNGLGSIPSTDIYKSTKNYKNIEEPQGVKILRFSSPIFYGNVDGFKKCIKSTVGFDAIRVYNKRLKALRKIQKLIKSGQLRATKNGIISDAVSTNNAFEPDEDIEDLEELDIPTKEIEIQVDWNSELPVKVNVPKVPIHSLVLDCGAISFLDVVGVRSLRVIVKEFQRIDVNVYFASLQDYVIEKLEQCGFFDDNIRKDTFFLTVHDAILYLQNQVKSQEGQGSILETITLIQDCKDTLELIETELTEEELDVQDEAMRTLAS
Description: Chinese hamster ovary (CHO)-K1 cells were maintained in a DMEM medium containing 10% fetal bovine serum (FBS), 100 units/ml penicillin and 100 100 μg/ml streptomycin. CHO-K1 cells were stably transfected with pcDNA3.1 encoding halide sensor YFP-H148Q/I152L/F46L and human wild-type (WT)-pendrin. For distribution of primary culture of human nasal cavity epithelium (HNE) cells, passage-2 cells were seeded into transwell-transparent culture inserts with a pore size of 0.45 μm (Costar Co., Cambridge, MA) at a density of 2×10^5 cells/cm^2. […]
For measurement of Cl^−/HCO3^− exchange activity, intracellular pH (pHi) was measured in WT-pendrin expressing CHO-K1 and HNE cells using pH sensor SNARF5-AM (Molecular Probes). The cells were treated with 5 μM SNARF5-AM for 30 minutes, and then were equipped in a perfusion chamber on the stage of a reverse fluorescence microscope (Nikon, Tokyo, Japan) equipped with a cooled charge-coupled device camera (Zyla sCMOS), image acquisition and analysis software (Meta Imaging Series 7.7). […] SNARF5 fluorescence was recorded at 515±10 nm of the excitation wavelength and 640±10 nm of the emission wavelength, and intracellular pH calibration was performed with a solution including 145 mM KCl, 10 mM HEPES and […] nigericin having a calibrated pH to 6.2-7.6.

AN01 = test: Protein expression measurement in IL-4-treated HNE cells, AN01; format: cell-based, human; settings: long-term treatment
Description: CHO-K1 and HNE cells were lysed with a cytolytic buffer (50 mM Tris-HCl, pH 7.4, 1% Nonidet P-40, 0.25% sodium deoxycholate, 150 mM NaCl, 1 mM EDTA, 1 mM Na3VO4, and protease inhibiting mixture). The total cell lysates were under centrifugation at 15,000×g for 10 minutes at 4° C. to remove cellular debris and the same amount (50 μg protein or 5 μg protein/lane) of supernatant protein was isolated on 4-12% Tris-glycine precast gel (KOMA BIOTECH, Seoul, Korea) and transferred to PVDF membrane (Millipore, Billerica, MA, USA). The membrane was blocked with 5% fat-free skim milk in TBS containing 0.1% Tween 20 (TBST) or 5% bovine serum albumin in TBS at a room temperature for 1 hour. Then, the membrane was cultured at 4° C. overnight with a primary antibody against pendrin (sc-50346; Santa Cruz Biotechnology, Santa Cruz, CA, USA), NF-κB p65 (4764S; Cell Signaling Technology, Danvers, MA, USA), p-NF-κB p65 (3033S; Cell Signaling Technology), IkBα (9242S; Cell Signaling Technology), p-IkBα (9141S; Cell Signaling Technology), β-actin (sc-47778; Santa Cruz Biotechnology), or AN01 (ab64085; Abeam). After washing with 0.05% Tween 20 (TBST) in PBS, the blot was additionally cultured with a secondary antibody (Cell Signaling Technology, Danvers, MA) at a room temperature for 60 minutes. […]

IC50 (SLC26A3): > 100 µM | IC50 (SLC26A6): > 100 µM | effect on SLC26A7 Cl^−/HCO3^− exchange (SLC26A7): did not affect | effect on SLC26A9 Cl^−/HCO3^− exchange (SLC26A9): did not affect | inhibition of pendrin-mediated Cl^−/HCO3^− exchange activity (pendrin; IL-4-treated HNE and HBE cells, acute treatment): potentially inhibited | IL-4-induced upregulation of the Cl^−/HCO3^− exchange activity (pendrin; long-term treatment, HNE cells): strongly reduced
Structure (SMILES): CC(C)(C)c1ccc(C2=NC(=Cc3cccs3)C(=O)O2)cc1 [F56, 2-(4-(tert-butyl)phenyl)-4-(thiophen-2-ylmethylene)oxazol-5(4H)-one]
IL-4-induced upregulation of AN01 (AN01): not affected
